Measurements taken from patent US8741836B2, “Polypeptides” (Novo Nordisk A/S, priority 2011, dated 2014).
Starred links: 1 amine or outer side, 2 acyl side, 3 side chain; linkers in the order of their positions; H or OH if unused. Positions of bridges follow the written chain, without caps; N, C: chain ends. Non-standard residues stand in square brackets, D forms with d. Residues, ends and D or L forms follow the SMILES beside them. *: point of attachment. C20 diacid = O=C(O)CCCCCCCCCCCCCCCCCCC(=O)*; C18 diacid = O=C(O)CCCCCCCCCCCCCCCCC(=O)*; γGlu = O=C(O)[C@H](CCC(=O)[*:2])N[*:1]; Orn = NCCC[C@H](N)C(=O)O; AEEA = NCCOCCOCC(=O)O

Tested on: ad libitum fed rat
Assay: Assay (I) efficacy testing on appetite (food intake) using an ad libitum fed rat model
Assay type: in vivo, Sprague Dawley (SD) rats
Conditions: 3 nmol/kg
How it was run: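 Ad libitum fed Sprague Dawley rats, 200-250 g, singly housed on reversed light cycle, got one ip, po or sc dose of 0.01-3 mg/kg just before lights off; groups of 5-8 with vehicle control. Food intake recorded hourly for 7 h, then at 24 h and sometimes 48 h; Grubbs outliers excluded.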

Structure (SMILES)	Food intake reduction 0-24 h 3 nmol/kg (%)	Food intake reduction 24-48 h 3 nmol/kg (%)
CC[C@H](C)[C@H](NC(=O)[C@@H]1CCCN1C(=O)CNC(=O)[C@H](Cc1ccccc1)NC(=O)[C@H](CC(N)=O)NC(=O)[C@H](CC(N)=O)NC(=O)[C@H](CO)NC(=O)[C@H](CO)NC(=O)[C@H](CCCNC(=N)N)NC(=O)[C@H](Cc1c[nH]cn1)NC(=O)[C@H](CC(C)C)NC(=O)[C@H](Cc1ccccc1)NC(=O)[C@H](CCC(=O)O)NC(=O)[C@H](C)NC(=O)[C@H](CC(C)C)NC(=O)[C@H](CCCNC(=N)N)NC(=O)[C@H](CCC(N)=O)NC(=O)[C@@H](NC(=O)[C@H](C)NC(=O)[C@@H]1CSSC[C@H](NC(=O)CC[C@H](NC(=O)CCCCCCCCCCCCCCCCCCC(=O)O)C(=O)O)C(=O)NCC(=O)N[C@@H]([C@@H](C)O)C(=O)N[C@@H](C)C(=O)N[C@@H]([C@@H](C)O)C(=O)N1)[C@@H](C)O)C(=O)N[C@@H](CC(C)C)C(=O)N1CCC[C@H]1C(=O)N1CCC[C@H]1C(=O)N[C@H](C(=O)N[C@@H](CCC(=O)O)C(=O)N[C@H](C(=O)NCC(=O)N[C@@H](CO)C(=O)NCC(=O)N[C@H](C(=O)N[C@@H](Cc1ccc(O)cc1)C(N)=O)[C@@H](C)O)C(C)C)[C@@H](C)O [Example 3, N-alpha-[(S)-4-Carboxy-4-(19-carboxynonadecanoylamino)butyryl]-[des1,Gly3,Glu14,His17,Arg18,Glu31,Gly35]-pramlintide] ({C20 diacid-γGlu}-CGTATCATQRLAEFLHRSSNNFGPILPPTEVGSGTY-NH2; disulfide 1-6)	37	32
CC[C@H](C)[C@H](NC(=O)[C@@H]1CCCN1C(=O)CNC(=O)[C@H](Cc1ccccc1)NC(=O)[C@H](CC(N)=O)NC(=O)[C@H](CC(N)=O)NC(=O)[C@H](CO)NC(=O)[C@H](CO)NC(=O)[C@H](Cc1c[nH]cn1)NC(=O)[C@H](Cc1c[nH]cn1)NC(=O)[C@H](CC(C)C)NC(=O)[C@H](Cc1ccccc1)NC(=O)[C@H](CCC(=O)O)NC(=O)[C@H](C)NC(=O)[C@H](CC(C)C)NC(=O)[C@H](CCCNC(=N)N)NC(=O)[C@H](CCC(N)=O)NC(=O)[C@@H](NC(=O)[C@H](C)NC(=O)[C@@H]1CSSC[C@H](NC(=O)[C@H](CCCCN)NC(=O)[C@H](CCC(=O)O)NC(=O)CC[C@H](NC(=O)CCCCCCCCCCCCCCCCCCC(=O)O)C(=O)O)C(=O)N[C@@H](CC(N)=O)C(=O)N[C@@H]([C@@H](C)O)C(=O)N[C@@H](C)C(=O)N[C@@H]([C@@H](C)O)C(=O)N1)[C@@H](C)O)C(=O)N[C@@H](CC(C)C)C(=O)N1CCC[C@H]1C(=O)N1CCC[C@H]1C(=O)N[C@H](C(=O)N[C@@H](CC(N)=O)C(=O)N[C@H](C(=O)NCC(=O)N[C@@H](CO)C(=O)N[C@@H](CC(N)=O)C(=O)N[C@H](C(=O)N[C@@H](Cc1ccc(O)cc1)C(N)=O)[C@@H](C)O)C(C)C)[C@@H](C)O [Example 26, N-alpha-[(S)-4-Carboxy-4-(19-carboxynonadecanoylamino)butyryl]-Glu-[Glu14,His17]-pramlintide] ({C20 diacid-γGlu}-EKCNTATCATQRLAEFLHHSSNNFGPILPPTNVGSNTY-NH2; disulfide 3-8 (inferred))	46	39
CC[C@H](C)[C@H](NC(=O)[C@H](CCC(=O)O)NC(=O)CNC(=O)[C@H](Cc1ccccc1)NC(=O)[C@H](CC(N)=O)NC(=O)[C@H](CC(N)=O)NC(=O)[C@H](CO)NC(=O)[C@H](CO)NC(=O)[C@H](CCCNC(=N)N)NC(=O)[C@H](Cc1c[nH]cn1)NC(=O)[C@H](CC(C)C)NC(=O)[C@H](Cc1ccccc1)NC(=O)[C@H](CCC(=O)O)NC(=O)[C@H](C)NC(=O)[C@H](CC(C)C)NC(=O)[C@H](CCCNC(=N)N)NC(=O)[C@H](CCC(N)=O)NC(=O)[C@@H](NC(=O)[C@H](C)NC(=O)[C@@H]1CSSC[C@H](NC(=O)[C@H](Cc2c[nH]cn2)NC(=O)CC[C@H](NC(=O)CCCCCCCCCCCCCCCCCCC(=O)O)C(=O)O)C(=O)N[C@@H](CC(N)=O)C(=O)N[C@@H]([C@@H](C)O)C(=O)N[C@@H](C)C(=O)N[C@@H]([C@@H](C)O)C(=O)N1)[C@@H](C)O)C(=O)N[C@@H](CC(C)C)C(=O)N[C@@H](CO)C(=O)N[C@@H](CCCNC(=N)N)C(=O)N[C@H](C(=O)N[C@@H](CC(N)=O)C(=O)N[C@H](C(=O)NCC(=O)N[C@@H](CO)C(=O)N[C@@H](CC(N)=O)C(=O)N[C@H](C(=O)N[C@@H](Cc1ccc(O)cc1)C(N)=O)[C@@H](C)O)C(C)C)[C@@H](C)O [Example 7, N-alpha-[(S)-4-Carboxy-4-(19-carboxynonadecanoylamino)butyryl]-[His1,Glu14,His17,Arg18,Glu25,Ser28,Arg29]-pramlintide] ({C20 diacid-γGlu}-HCNTATCATQRLAEFLHRSSNNFGEILSRTNVGSNTY-NH2; disulfide 2-7 (inferred))	53	46
CC[C@H](C)[C@H](NC(=O)[C@@H]1CCCN1C(=O)CNC(=O)[C@H](Cc1ccccc1)NC(=O)[C@H](CC(N)=O)NC(=O)[C@H](CC(N)=O)NC(=O)[C@H](CO)NC(=O)[C@H](CO)NC(=O)[C@H](CCCNC(=N)N)NC(=O)[C@@H](NC(=O)[C@H](CC(C)C)NC(=O)[C@H](Cc1ccccc1)NC(=O)[C@H](CCC(=O)O)NC(=O)[C@H](C)NC(=O)[C@H](CC(C)C)NC(=O)[C@H](CCCNC(=N)N)NC(=O)[C@H](CCC(N)=O)NC(=O)[C@@H](NC(=O)[C@H](C)NC(=O)[C@@H]1CSSC[C@H](NC(=O)[C@H](Cc2c[nH]cn2)NC(=O)CC[C@H](NC(=O)CCCCCCCCCCCCCCCCCCC(=O)O)C(=O)O)C(=O)N[C@@H](CC(N)=O)C(=O)N[C@@H]([C@@H](C)O)C(=O)N[C@@H](C)C(=O)N[C@@H]([C@@H](C)O)C(=O)N1)[C@@H](C)O)C(C)C)C(=O)N[C@@H](CC(C)C)C(=O)N1CCC[C@H]1C(=O)N1CCC[C@H]1C(=O)N[C@H](C(=O)N[C@@H](CC(N)=O)C(=O)N[C@H](C(=O)NCC(=O)N[C@@H](CO)C(=O)N[C@@H](CC(N)=O)C(=O)N[C@H](C(=O)N[C@@H](Cc1ccc(O)cc1)C(N)=O)[C@@H](C)O)C(C)C)[C@@H](C)O [Example 15] ({C20 diacid-γGlu}-HCNTATCATQRLAEFLVRSSNNFGPILPPTNVGSNTY-NH2; disulfide 2-7 (inferred))	56	59
CC[C@H](C)[C@H](NC(=O)[C@@H]1CCCN1C(=O)CNC(=O)[C@H](Cc1ccccc1)NC(=O)[C@H](CC(N)=O)NC(=O)[C@H](CC(N)=O)NC(=O)[C@H](CO)NC(=O)[C@H](CO)NC(=O)[C@H](CCCNC(=N)N)NC(=O)[C@H](Cc1c[nH]cn1)NC(=O)[C@H](CC(C)C)NC(=O)[C@H](Cc1ccccc1)NC(=O)[C@H](CCC(=O)O)NC(=O)[C@H](C)NC(=O)[C@H](CC(C)C)NC(=O)[C@H](CCCNC(=N)N)NC(=O)[C@H](CCC(N)=O)NC(=O)[C@@H](NC(=O)[C@H](C)NC(=O)[C@@H]1CSSC[C@H](NC(=O)[C@H](CCCN)NC(=O)[C@@H](CCCNC(=N)N)NC(=O)[C@@H](CCCNC(=N)N)NC(=O)COCCOCCNC(=O)COCCOCCNC(=O)CC[C@H](NC(=O)CCCCCCCCCCCCCCCCC(=O)O)C(=O)O)C(=O)N[C@@H](CC(N)=O)C(=O)N[C@@H]([C@@H](C)O)C(=O)N[C@@H](C)C(=O)N[C@@H]([C@@H](C)O)C(=O)N1)[C@@H](C)O)C(=O)N[C@@H](CC(C)C)C(=O)N1CCC[C@H]1C(=O)N1CCC[C@H]1C(=O)N[C@H](C(=O)N[C@@H](CC(N)=O)C(=O)N[C@H](C(=O)NCC(=O)N[C@@H](CO)C(=O)N[C@@H](CC(N)=O)C(=O)N[C@H](C(=O)N[C@@H](Cc1ccc(O)cc1)C(N)=O)[C@@H](C)O)C(C)C)[C@@H](C)O [Example 120, N-alpha-[2-(2-{2-[2-(2-{2-[(S)-4-Carboxy-4-(17-carboxyheptadecanoylamino)butyrylamino]ethoxy}ethoxy)acetylamino]ethoxy}ethoxy)acetyl]-D-Arg-D-Arg-[Orn1,Glu14,His17,Arg18]-pramlintide] ({C18 diacid-γGlu-AEEA-AEEA}-[dR][dR][Orn]CNTATCATQRLAEFLHRSSNNFGPILPPTNVGSNTY-NH2; disulfide 4-9 (inferred))	53	2
CC[C@H](C)[C@H](NC(=O)[C@@H]1CCCN1C(=O)CNC(=O)[C@H](Cc1ccccc1)NC(=O)[C@H](CC(N)=O)NC(=O)[C@H](CC(N)=O)NC(=O)[C@H](CO)NC(=O)[C@H](CO)NC(=O)[C@H](Cc1c[nH]cn1)NC(=O)[C@H](Cc1c[nH]cn1)NC(=O)[C@H](CC(C)C)NC(=O)[C@H](Cc1ccccc1)NC(=O)[C@H](CCC(=O)O)NC(=O)[C@H](C)NC(=O)[C@H](CC(C)C)NC(=O)[C@H](CCCNC(=N)N)NC(=O)[C@H](CCC(N)=O)NC(=O)[C@@H](NC(=O)[C@H](C)NC(=O)[C@@H]1CSSC[C@H](NC(=O)CC[C@H](NC(=O)CCCCCCCCCCCCCCCCCCC(=O)O)C(=O)O)C(=O)N[C@@H](CC(N)=O)C(=O)N[C@@H]([C@@H](C)O)C(=O)N[C@@H](C)C(=O)N[C@@H]([C@@H](C)O)C(=O)N1)[C@@H](C)O)C(=O)N[C@@H](CC(C)C)C(=O)N1CCC[C@H]1C(=O)N1CCC[C@H]1C(=O)N[C@H](C(=O)N[C@@H](CC(N)=O)C(=O)N[C@H](C(=O)NCC(=O)N[C@@H](CO)C(=O)N[C@@H](CC(N)=O)C(=O)N[C@H](C(=O)N[C@@H](Cc1ccc(O)cc1)C(N)=O)[C@@H](C)O)C(C)C)[C@@H](C)O [Example 28, N-alpha-[(S)-4-Carboxy-4-(19-carboxynonadecanoylamino)butyryl]-[des1,Glu14,His17]-pramlintide] ({C20 diacid-γGlu}-CNTATCATQRLAEFLHHSSNNFGPILPPTNVGSNTY-NH2; disulfide 1-6)	39	36
